Molecules are shown by their SMILES.

Regarding `Nc1ccc2c(c1)N1CCCN=C1S2`, the melting point is 197 °C.
Compound `CC(C)(C)CC(C)(C)c1cc(-n2nc3ccc(Cl)cc3n2)c(O)c(C(C)(C)c2ccccc2)c1` returned a melting point of 104 to 105 °C.
In turn, `COc1ccc(C(=O)c2ccc(OCc3nc(-c4ccccc4)oc3C)cc2)c(OC(C)C(=O)O)c1` (centres undefined) gave a melting point of 100 to 102 °C.
On to `C=CCNC(=S)N1CCc2[nH]cnc2C1CC` (centres undefined), for which the melting point turned out to be 205 °C.
The same measure for `CC=CC(=O)c1c(CCC)n(Cc2ccccc2Cl)c2cc(C(N)=O)ccc12`: 186 °C; for `CCCSC1=NSc2cc(C)cnc2N1Cc1ccc(-c2ccccc2C(=O)O)cc1`: 237 to 239 °C; for `CNC(=O)Oc1ccccc1OC`: 90 to 92 °C.
As for `COC(=O)C1C=CCN2C(=O)C(C)(CCI)C(=O)N12` (centres undefined), the melting point lay within 86 to 87 °C.
As to `COc1cc2c(cc1OCc1ccccc1)CC(C)(C)N=C2C`, the melting point lay in the range of 87.9 to 90 °C.
In the case of `O=C(O)CCC1CNC(=O)CC1c1ccc(F)cc1` (centres undefined), the melting point was 139 to 141 °C.
As for `COc1ccc(Nc2nc(-c3cc(-c4ccccc4)no3)cs2)nc1`, the melting point was in the range of 203 to 205 °C.
Consider `CC(C)c1cccc(C(C)C)c1NC(=O)NCC1(c2ccc3ccccc3c2)CCCC1`, for which the melting point was in the range of 152 to 154 °C.
Next, `COC(=O)CC[C@H](NC(=O)CCC#Cc1cnc2nc(NC(=O)C(C)(C)C)nc(O)c2c1)C(=O)OC`: 162 to 163 °C; `NS(=O)(=O)c1ccccc1SCC(F)F`: 111 to 112 °C; `COc1c(C)c(C)c(OC)c(C(CCCC(=O)O)c2ccccc2)c1C` (centres undefined): 142 to 143 °C.
Turning to `COc1c(C)c(C(=O)c2ccc([N+](=O)[O-])cc2)n2ccccc12`, the melting point is 151 °C.
Next, `COc1ccccc1-c1c2nn(-c3ccc(Cl)cc3)c(=O)c-2c[nH]c1C`: 267 to 278 °C.
The same measure for `Fc1c(Cl)cccc1Br`: 43 °C; for `CCn1c(=O)c2[nH]c(/C=C/c3cccc(Oc4ccccc4)c3)nc2n(CC)c1=O`: 241 to 243 °C; for `Cc1cc(I)cc2[nH]c(C(=O)O)cc(=O)c12`: 294 °C.
Compound `O=C1CC(Nc2ccc([N+](=O)[O-])cc2)=NN1c1c(Cl)cc(Cl)cc1Cl` registered a melting point of 295 to 298 °C.
Compound `CCOC(=O)c1ccc2c(c1)c(C)c(CBr)n2C(C)=O` displayed a melting point of 125 to 130 °C.
As for `Cc1noc2cc(OC3SCC(O)C(O)C3O)ccc12` (centres undefined), the melting point fell in the range of 148 to 161 °C.
The same measure for `CCCn1nc(-c2sc(C(=O)NC3CC3)nc2-c2ccccc2)ccc1=O`: 146 to 147 °C; for `N#Cc1cnc2c(c1Nc1ccc(Cl)cc1Br)C=C1N=CN=C1C2`: 244 to 246 °C.
`Cc1nc(-n2cnn(Cc3ccc(F)cc3)c2=O)sc1C(N)=O`: the melting point was in the range of 232 to 233 °C.
For the compound `CCOC(=O)c1ccc(OC(F)F)cc1S(=O)(=O)NC(=O)Nc1nc(OC)cc(OC)n1`, the melting point fell in the range of 146 to 149 °C.
Next, `O=C(CN1CCC(OCc2ccccc2)CC1)Nc1ccc2c(c1)OCC(=O)N2`: 238 to 240 °C; `O=C(O)c1cc(-c2nccs2)[nH]c1C(CC1CCOCC1)c1ccc(S(=O)(=O)C2CC2)cc1` (centres undefined): 153 to 155 °C; `CC(=O)CCC(=O)c1ccc(Cl)cc1`: 165 to 167 °C.
Next, `CC(CN=C(c1ccccc1)c1ccccc1)N=C(c1ccccc1)c1ccccc1` (centres undefined): 89 to 90 °C; `NS(=O)(=O)c1ccc(CNC(=O)c2ccccc2SSc2ccccc2C(=O)NCc2ccc(S(N)(=O)=O)cc2)cc1`: 267 to 269 °C.
The same measure for `CCOC(=O)CSc1nccc(NCCc2ccc(Cl)cc2)n1`: 58 to 61 °C; for `CCOC(=O)c1[nH]c(=O)c(CC(C)C)[n+]([O-])c1OC`: 153 to 155 °C.
In turn, `COC(=S)c1nc(C)c(N)nc1N` yielded a melting point of 158 to 160 °C.
Next, `CCC(=O)N[C@H]1CC[C@H](CCN2CCN(c3nccc4c3CCO4)CC2)CC1`: 192 °C; `CN1CCC(CCCC2CCN(CC(=O)N3c4ccccc4C(=O)Nc4cccnc43)CC2)CC1`: 192 to 194 °C.
Next, `CCn1cc(C(=O)O)c(=O)c2cc(F)c(N3C[C@@H](N)[C@@H]3C)cc21` (relative stereo): 232 to 235 °C; `O=C(O)CCC(=O)OC1CCCN(C(=O)Cn2c(=O)sc3ccc(Cl)cc32)C1` (centres undefined): 131 to 133 °C; `CCn1nnc(NC(=O)C(c2ccccc2)c2ccccc2)n1`: 169 to 170 °C.
Consider `CC(C)(C)[N+]([O-])=Cc1ccc(OCc2ccccc2)cc1`, for which the melting point came out at 11 °C.
Next, `CCCCc1c(C)cc(C)cc1O`: 65 to 67 °C; `c1cc2c3c(cccc3c1)NCN2`: 89 to 93 °C.
In turn, `COCCCOc1cc(CBr)ccc1OC` displayed a melting point of 50 to 51 °C.
The same measure for `CCOc1ccc(-c2[nH]nc3c2C(=O)c2c(NC(C)=O)cccc2-3)cc1`: 288 °C; for `CCc1ncnc(NC(C)c2ccc([Si](C)(C)C)cc2)c1Cl` (centres undefined): 79 to 80 °C.
`Cc1ccc(S(=O)(=O)OCC2Cc3cccc(-c4ccccc4Cl)c3O2)cc1` (centres undefined) came in with a melting point of 100 to 103 °C.
The same measure for `c1ccc(CN2CCC(n3nnc4ccccc43)CC2)cc1`: 110 to 111 °C.
`O=[N+]([O-])c1ccccc1-c1oc2ccc(CBr)cc2c1Br` displayed a melting point of 118 °C.
The same measure for `COc1ccc(OC)c(S(=O)(=O)n2c(CCC(=O)O)cc3cc(Cl)ccc32)c1`: 185 to 189 °C; for `Cc1cccc(C2(O)CCN(c3ccc(O)nn3)CC2)c1`: 265 °C; for `CC(=O)Nc1ccc(C#Cc2cnn3c(C(F)(F)F)cc(-c4ccc(C(F)(F)F)cc4)nc23)cn1`: 266 °C.
`O[C@H](COc1cccc2[nH]ccc12)CN1CC=C(c2c[nH]c3cccc(F)c23)CC1`: the melting point fell in the range of 90 to 95 °C.
The same measure for `CCc1ccc2c(=O)c(-c3nnn[nH]3)cn(C)c2c1`: 180 to 181 °C; for `CN(Cc1cc(C(F)(F)F)cc(C(F)(F)F)c1)C(=O)c1c(-c2ccc(F)cc2)c2ccncc2c(=O)n1C`: 179 to 181 °C; for `Cc1nc(N)nc(N)c1CCCc1cc(Cl)c(Cl)cc1Cl`: 215 °C.
Next, `Cc1cccc2ncc(C(=O)NC(C)(C)C)c(=O)n12`: 164 to 166 °C.
The same measure for `N#Cc1cccc(CN2C(=O)C3(COc4cc5c(cc43)OCCO5)c3ccccc32)c1` (centres undefined): 94 to 96 °C; for `CCCN(CCC)C(=O)Cn1c(-c2ccc(C)s2)nc2cccnc21`: 125 to 127 °C; for `NS(=O)(=O)c1ccccc1CCl`: 156 to 158 °C.
Turning to `CC1(C)CC(=O)Nc2ccccc21`, the melting point is 111 to 112 °C.
The same measure for `CCc1cc(-c2nc3ccccc3s2)ccc1N`: 118 to 120 °C.
The same measure for `CC(C)(C)OC(=O)NCCCCNC1(c2ccccc2Cl)C(=O)Nc2ccc(Cl)cc21` (centres undefined): 175 to 176 °C; for `CNC(=O)N1CCC(Oc2ccc([N+](=O)[O-])cc2)(c2ccccc2)CC1`: 110 to 115 °C.

The melting point is the temperature of the solid-liquid transition.

Source of the values: a melting point compilation (Tetko et al.; mined from patent text by program, amines drawn as free bases though some values may be those of a salt).
